Laboratory results: patent US12071469B2, “Peptide compounds for suppressing inflammation” (Duke University, priority 2011, dated 2024)
Entries after “also recorded” stand apart in the source; their conditions may differ.

Tests used:
[1] = test system: primary rat neuronal cortical culture exposed to NMDA; experiment: Neuroprotection from NMDA mediated cell death in primary neuronal culture (LDH release); assay type: cell-based; conditions: for reduced LDH release: concentration not given
Method: Peptides of 5 amino acids in length were applied to one or more samples of cells in parallel at concentrations ranging from about 0 to about 50 μM, such as 0.3, 3, and 30 μM. The peptides AL-10-1 (SEQ ID NO:18) and VL-17-9 (SEQ ID NO:19), which are longer peptides (12 amino acids each) were used as negative and positive controls, respectively. A series of peptides were screened in primary rat neuronal cortical culture exposed to NMDA using the method described in Aono et al., Neuroscience (2003) 116:437 and Aono et al., Neurobiology of Disease (2002) 11:214, both of which are incorporated by reference in their entirety (see Table 2). Neuroprotection from NMDA mediated cell death in primary neuronal culture was expressed as percentage decrease in LDH, 24 hours after exposure to NMDA compared to vehicle treated cultures (Table 2). LDH release is indicative of neuronal death after NMDA exposure. The peptide VR-55 (SEQ ID NO:4) reduced NMDA mediated excitotoxic cell death by approximately 19% at a concentration of 1 μM. […] The positive control peptide VL-17-9 reduced LDH release by 31%.
Dose response of the neuroprotection from NMDA excitotoxicity in primary neuronal culture was determined for ApoE mimetic peptide VR-55 (SEQ ID NO: 4). […] “0” indicates less than 5% suppression; “+” indicates 5-10% suppression; “++” indicates 11-20% suppression; and “+++” indicates greater than 20% suppression. In addition to VL-17-9, several other candidates had greater than 20% suppression, including VR-55, VL-5-1, VL-5-2 and VR-52.

[2] = test system: mixed glial primary culture; experiment: Suppression of TNF-α release in mixed glial primary culture after exposure to LPS; assay type: cell-based, murine; conditions: FIGS. 11A and 11B
Method: (§1) In vitro methods have been developed using cultured cells for evaluating the ability of a compound, such as a peptide, to suppress glial activation. Laskowitz et al., (2001) Exp. Neurol., 167:74-85. Glial cell cultures were grown and maintained under standard conditions. Cultured glial cells may include primary murine mixed glial cell cultures, murine BV-2 microglial cells, and human C3 microglial cells. Adherent glial cells were washed with OptiMEM® medium (available from Invitrogen Corp.) to remove serum and covered with fresh OptiMEM® medium containing peptide.
Larger peptides or proteins may need to be tested at higher concentrations to observe measurable suppression of glial activation. If using primary murine cells and BV-2 cells, cells are stimulated with 100 ng/ml E. coli LPS (available from Sigma-Aldrich Co.), and supernatant is collected six hours after LPS stimulation and assayed for nitrite (using a colorimetric Griess reagent system, available from Promega Corp.) and/or TNF-α (using a solid-phase ELISA kit, available from Invitrogen Corp.). If using human C3 cells, cells are stimulated with 200 μg/ml polyinosinic acid 5′ (available from Sigma-Aldrich Co.), and supernatant is collected 5 days after stimulation and assayed for TNF-α using a solid-phase ELISA kit (available from Invitrogen Corp.).
The protective activity against brain injury-downregulating CNS inflammatory response was determined for ApoE mimetic peptides, VR-55 (SEQ ID NO: 4), VL-5-1 (SEQ ID NO: 5) and VL-5-3 (SEQ ID NO: 10).

[3] = test system: BV-2 murine microglial cells; experiment: Suppression of LPS-stimulated TNF-α production in BV-2 microglial cells (ELISA); assay type: cell-based; conditions: peptide 0.3, 3 or 30 μM; LPS 100 ng/mL, six hours; FIG. 1; listed as SEQ ID NO:3
Method: Cultured BV-2 murine microglial cells were incubated with either the indicated concentrations of peptide (SEQ ID NO:3) or a negative control peptide (SEQ ID NO:13) and stimulated with lipopolysaccharide (LPS) (100 ng/mL) for six hours. After six hours, supernatants were harvested and the concentration of secreted TNF-α was measured by ELISA (**p<0.01; ANOVA).
as §1
Larger peptides or proteins may need to be tested at higher concentrations to observe measurable suppression of glial activation. […]
Murine BV-2 cultures were prepared and used to evaluate suppression of microglial activation as described in Example 1. […] Each sample was stimulated with LPS and assessed for TNF-α production as described in Example 1.

[4] = test system: mice with traumatic brain injury; experiment: Rotorod vestibulomotor function after traumatic brain injury; assay type: in vivo, mouse; conditions: 0.05 mg/kg or 0.2 mg/kg iv at 2 h and 6 h after traumatic brain injury
Method: An experimental murine model for traumatic brain injury was developed. Laskowitz, et al. (2010) J. Neurotrauma, 27:1983-95. Male mice (age 12-14 weeks) were anesthetized with 4.3% isoflurane in oxygen in an anesthesia induction box for 90 seconds. The trachea was intubated and the lungs mechanically ventilated with 1.4% isoflurane in a 50/50 mixture of oxygen and nitrogen. Body temperature was maintained at 37° C. using surface heating/cooling. The top of the skull was exposed by a midline incision to identify anatomical landmarks, and a concave 3-mm metallic disc was secured to the skull surface with an adhesive, directly midline and just caudal to the bregma. The disc diffused the energy of impact and reduced the incidence of depressed skull fracture to less than 10%. After general anesthesia, mice were positioned in a stereotactic device and the skull was exposed. A pneumatic impactor (diameter: 2.0 mm; available from Air-Power, Inc.) discharged at 6.8±0.2 m/s with a head displacement of 3 mm was used to deliver a single midline impact to the disc surface.
An experimental procedure for measuring neurological deficits was developed. An automated rotorod (available from Ugo Basile North America, Inc.) was used to assess vestibulomotor function. On the day before experimental induction of a neurological condition or injury (such as, for example, traumatic brain injury or intracerebral hemorrhage as described above), mice under went two consecutive conditioning trials at a set rotational speed (16 revolutions per minute) for 60 seconds followed by three additional trials with an accelerating rotational speed. The average time to fall from the rotating cylinder in the latter three trials was recorded as baseline latency. After injury, mice under went consecutive daily testing with three trials of accelerating rotational speed (intertribal interval of 15 minutes). Average latency to fall from the rod was recorded, and mice unable to grip the rod were scored with a latency of 0 seconds.
Groups of mice received either an ApoE mimetic peptide (SEQ ID NO:3; 0.05 mg/kg or 0.2 mg/kg) or carrier (saline) by intravenous tail vein injection at 2 hours and again at 6 hours after traumatic brain injury induced as described in Example 3. Each mouse was tested for vestibulomotor function by rotorod latency measured before and after injury, as described in Example 3.
Groups of mice received either an ApoE mimetic peptide (SEQ ID NO:4; 0.05 mg/kg) or carrier (saline) by intravenous tail vein injection at 2 hours and again at 6 hours after traumatic brain injury induced as described in Example 3. Each mouse was tested for vestibulomotor function by rotorod latency measured before and after injury, as described in Example 3. […]

| Substance | percentage decrease in LDH, 24 hours after exposure to NMDA compared to vehicle treated cultures ([1]; peptide 1 μM) | suppression of LDH release, cumulative data (class) ([1]; peptide 1 μM) | further results |
| --- | --- | --- | --- |
| Ac-ASHLRKLRKRLL-NH2 [AL-10-1, reference compound] | −6.21% | 0 (less than 5% suppression) | – |
| Ac-LRVRLASLLRKL-NH2 [VL-17-9, longer peptide (12 amino acids) used as positive control, reference compound] | 30.95% | +++ (greater than 20% suppression) | reduced LDH release [1]: 31%; percentage decrease in LDH, 24 hours after exposure to NMDA compared to vehicle treated cultures ([1]; peptide 0.1 μM): 16.19% |
| Ac-RARRL-NH2 [RL-5-2] | −5.23% | 0 (less than 5% suppression) | – |
| Ac-RHKKL-NH2 [RL-5-1] | −2.85% | ++ (11-20% suppression) | – |
| Ac-RHKRR-NH2 [RR-5-1] | 7.50% | + (5-10% suppression) | – |
| Ac-RSKKL-NH2 [RL-5-3] | −20.80% | 0 (less than 5% suppression) | – |
| Ac-RSKRR-NH2 [RR-5-2] | 0.08% | 0 (less than 5% suppression) | – |
| Ac-VARKL-NH2 [VL-5-1] | 24.48% | +++ (greater than 20% suppression) | percentage decrease in LDH, 24 hours after exposure to NMDA compared to vehicle treated cultures ([1]; peptide 0.1 μM): 18.57%; percentage decrease in LDH, 24 hours after exposure to NMDA compared to vehicle treated cultures ([1]; peptide 0.3 μM): 0.29%; release of inflammatory cytokine TNF-α [2]: inhibition of microglial TNF-α secretion; also recorded: suppress the release of inflammatory cytokine TNF-α |
| Ac-VARKL-NH2 [VL-5-2] | 34.26% | +++ (greater than 20% suppression) | reduced LDH release [1]: 31% |
| Ac-VARRL-NH2 [VL-5-3] | 11.50% | ++ (11-20% suppression) | percentage decrease in LDH, 24 hours after exposure to NMDA compared to vehicle treated cultures ([1]; peptide 0.1 μM): −19.04%; percentage decrease in LDH, 24 hours after exposure to NMDA compared to vehicle treated cultures ([1]; peptide 0.3 μM): −16.70%; release of inflammatory cytokine TNF-α [2]: inhibition of microglial TNF-α secretion; also recorded: suppress the release of inflammatory cytokine TNF-α |
| Ac-VSKKR-NH2 [VR-54, negative control peptide, reference compound] | −15.91% | ++ (11-20% suppression) | – |
| Ac-VSKRR-NH2 [VR-53] | 7.03% | + (5-10% suppression) | TNF-α production relative to untreated cells or negative control peptide [3]: inhibition of microglial TNF-α secretion; also recorded: decreased TNF-α production; durability of effect on rotorod latency [4]: durable through the five-day testing period; vestibulomotor performance (rotorod latency) compared to carrier ([4]; FIG. 2, listed as SEQ ID NO:3): significantly improved vestibulomotor performance |
| Ac-VSRKR-NH2 [VR-52] | 12.63% | +++ (greater than 20% suppression) | – |
